Patent US10766883B2, “Aminopyrazoles as janus kinase inhibitors” (Merck Sharp & Dohme Corp., priority 2016, dated 2020)
Like-named read-outs stand apart in the source and are kept apart here.

How the values were obtained:
[1] = target: JAK1 (Homo sapiens (Human), UniProt P23458); assay: JAK biochemical HTRF enzyme assay, JAK1
Experimental: (§1) The ability of compounds to inhibit the activity of JAK1, JAK2, JAK3, and Tyk2 was measured using a recombinant purified GST-tagged catalytic domain for each enzyme (InVitrogen/Life Technologies/ThermoFisher Scientific Inc., Waltham, Mass., USA; catalogue numbers: M4290(JAK1), M4290(JAK2), M4290(JAK3), M4290(Tyk2)) in an HTRF format biochemical assay.
(§2) Subsequent reagent additions employed an Agilent™ Bravo™ liquid handling system (Aligent Technologies, Santa Clara, Calif., USA). […] After equilibration, 2 μL of 10×ATP in 1× assay buffer was added to initiate the kinase reaction and the plates were shaken and then incubated at ambient temperature for 120 minutes. […] After normalization to untreated controls, the percent inhibition of the HTRF signal at each compound concentration was calculated. The plot of percent inhibition versus the log of compound concentration was fit with a 4-parameter dose response equation to calculate IC50 values.

[2] = target: JAK2 (Homo sapiens (Human), UniProt O60674); assay: JAK biochemical HTRF enzyme assay, JAK2; conditions: for JAK2/1: ratio JAK2 IC50 / JAK1 IC50
Experimental: as §1, §2

[3] = test system: IL-6R/JAK1/2/Stat3 pathway; assay: IL6 CellSensor beta-lactamase reporter assay (SIE-bla ME-180 cells); format: cell-based; conditions: Homo sapiens
Description: (§3) Inhibition of the activity of JAK kinases (JAK1, JAK2, JAK3 and TYK2) in intact cells was quantified in antagonist mode using CellSensor® transcriptional reporter technology (Life Technologies/ThermoFisher Scientific Inc., Waltham, Mass., USA; https://www.thermofisher.com/us/en/home/industrial/pharma-biopharma drug-discovery-development/target-and-lead-identification-and-validation/pathway-biology/cellular-pathway-analysis/cellsensor-cell-lines.html), in three independent cell lines engineered to detect IL4, IL6 and EPO signaling. In brief, CellSensor® cell lines (see details below for each assay) carrying a stably integrated β-Lactamase reporter gene under control of specific cis-regulatory STAT elements responsive to the pathway being monitored were pre-treated with test compounds serially diluted in DMSO (see preparation and dosing of compounds and agonist cytokines section).
(§4) Incubation with compounds, cytokines and LiveBLAzer™ were carried out at 37° C. in a tissue culture incubator maintained at 90% humidity and 5% CO2.
Interleukin 6 (IL6)—JAK1/JAK2—STAT4 Pathway
CellSensor™ SIE-bla ME-180 cells carrying a stably integrated β-Lactamase reporter gene under control of the Sis-Inducible Element (SIE).
(§5) Each CellSensor® cell line was subsequently plated as per supplier's instructions (30,000 cells in 32 μL/well) and mixed with the compound. Following a 60 minute incubation, cells were subsequently stimulated by addition of 8 μL of cognate cytokine (EC80 dose of IL4, IL6 and EPO) and incubated for an additional 3 hours, before adding LiveBLAzer™-FRET B/G substrate.
(§6) The IL-6 assay identifies agents that inhibit the beta-lactamase reporter activity initiated through stimulation of the IL-6R/JAK1/2/Stat3 pathway with recombinant human IL-6. The EPO assay identifies agents that inhibit the beta-lactamase reporter activity initiated through stimulation of the EPO/Jak2/Stat5 pathway with human EPO. Inhibition of EPO signaling leads to an inability to recover from anemia of chronic disease. […] That is, it is desirable for the EPO/IL-6 IC50 ratios to be a relatively large number.

[4] = test system: EPO/Jak2/Stat5 pathway; assay: EPO CellSensor beta-lactamase reporter assay (irf1-bla TF-1 cells); format: cell-based, human; conditions: for IC50: Homo sapiens; for EPO/IL-6: ratio EPO IP / IL-6 IP
Description: as §3, §4
Erythropoietin (EPO)—JAK2—STAT5 Pathway
CellSensor irf1-bla TF-1 cells carry a stably integrated β-Lactamase reporter gene under control of the STAT5 Response Elements present in the Interferon Regulatory Factor I (IRF1) gene promoter.
as §5, §6

[5] = target: JAK3 (Homo sapiens (Human), UniProt P52333); assay: JAK biochemical HTRF enzyme assay, JAK3; conditions: reference compound, mean +/- spread across assay runs
Experimental: as §1, with “assay. The reactions employed a common peptide substrate, LCB-[…]-NH2 (Merck Sharp & Dohme, Kenilworth, N.J., USA).” for “assay.”
(§7) The basic assay protocol is as follows: First, 250 nL of diluted compounds in DMSO were dispensed into the wells of a dry 384-well Black plate (GreinerFluotrac™ catalog number: 781076; Greiner Bio-One GmbH, Frickenhausen, Germany) using a Labcyte Echo® 555 acoustic dispenser (Clarcyte, Inc, Sunnyvale, Calif., USA). Subsequent reagent additions employed an Agilent™ Bravo™ liquid handling system (Aligent Technologies, Santa Clara, Calif., USA). […] After equilibration, 2 μL of 10×ATP in 1× assay buffer was added to initiate the kinase reaction and the plates were shaken and then incubated at ambient temperature for 120 minutes. […] HTRF signal=10,000*665 nm reading/615 nm reading. After normalization to untreated controls, the percent inhibition of the HTRF signal at each compound concentration was calculated. […]

[6] = target: Tyk2 (Homo sapiens (Human), UniProt P29597); assay: JAK biochemical HTRF enzyme assay, Tyk2; conditions: reference compound, mean +/- spread across assay runs
Experimental: as §1, with “assay. The reactions employed a common peptide substrate, LCB-[…]-NH2 (Merck Sharp & Dohme, Kenilworth, N.J., USA).” for “assay.”
as §7

[7] = test system: Interleukin 4 (IL4)—JAK1/JAK3—STAT6 Pathway; assay: IL4 CellSensor beta-lactamase reporter assay (STAT6-bla RA-1 cells); format: cell-based; conditions: reference compound, mean +/- spread across assay runs
Description: as §3, with “section). Following incubation with compounds, IL4, IL6, or EPO were added to each cognate cell line at a concentration equal to a dose necessary to achieve 80% of the maximal response (EC80).” for “section).”
as §4
Interleukin 4 (IL4)—JAK1/JAK3—STAT6 Pathway […]

[8] = HTRF, GST-tagged catalytic domain, ATP 31.8 μM
[9] = HTRF, GST-tagged catalytic domain, ATP 8.5 μM
[10] = SIE-bla ME-180 cells, IL6 at EC80, read-out: IL-6 IP
[11] = irf1-bla TF-1 cells, EPO at EC80, read-out: EPO IP
[12] = reference compound, mean +/- spread across assay runs

Sequence of JAK2 (O60674 849-1124): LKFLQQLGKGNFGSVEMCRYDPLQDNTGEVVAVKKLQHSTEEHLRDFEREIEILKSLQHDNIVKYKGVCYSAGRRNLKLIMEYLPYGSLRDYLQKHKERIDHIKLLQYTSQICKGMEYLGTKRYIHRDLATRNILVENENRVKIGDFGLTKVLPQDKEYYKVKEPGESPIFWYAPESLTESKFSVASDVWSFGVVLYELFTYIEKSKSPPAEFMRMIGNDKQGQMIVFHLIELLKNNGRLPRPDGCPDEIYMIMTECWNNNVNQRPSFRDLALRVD
Sequence of JAK1 (P23458 875-1153): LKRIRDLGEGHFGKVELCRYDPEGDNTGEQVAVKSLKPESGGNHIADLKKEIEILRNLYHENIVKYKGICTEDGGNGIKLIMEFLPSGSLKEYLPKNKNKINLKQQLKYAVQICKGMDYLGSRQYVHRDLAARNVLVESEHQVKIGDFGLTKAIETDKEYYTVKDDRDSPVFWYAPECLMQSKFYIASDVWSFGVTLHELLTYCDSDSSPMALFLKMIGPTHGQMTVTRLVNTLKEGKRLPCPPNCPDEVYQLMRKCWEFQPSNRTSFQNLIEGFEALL
Sequence of Tyk2 (P29597 897-1176): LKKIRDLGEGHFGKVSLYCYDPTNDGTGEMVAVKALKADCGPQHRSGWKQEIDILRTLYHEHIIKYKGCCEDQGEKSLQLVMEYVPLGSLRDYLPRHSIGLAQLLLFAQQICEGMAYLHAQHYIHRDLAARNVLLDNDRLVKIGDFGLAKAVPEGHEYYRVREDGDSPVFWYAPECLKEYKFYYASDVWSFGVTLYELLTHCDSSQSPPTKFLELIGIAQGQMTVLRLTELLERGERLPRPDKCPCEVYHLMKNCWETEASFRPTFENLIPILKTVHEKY
Sequence of JAK3 (P52333 822-1111): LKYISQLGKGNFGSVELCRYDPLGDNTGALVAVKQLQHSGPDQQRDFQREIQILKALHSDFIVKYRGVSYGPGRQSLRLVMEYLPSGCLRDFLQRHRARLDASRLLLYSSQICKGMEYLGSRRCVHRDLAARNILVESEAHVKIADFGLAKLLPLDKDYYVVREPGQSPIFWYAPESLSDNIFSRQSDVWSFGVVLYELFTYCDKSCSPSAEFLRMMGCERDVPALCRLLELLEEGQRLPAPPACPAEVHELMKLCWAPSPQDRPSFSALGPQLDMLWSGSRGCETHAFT

IC50 [1, 8] | IC50 [2, 9] | JAK2/1 [2] | IC50 [3, 10] | IC50 [4, 11] | SMILES | EPO/IL-6 [4] | other results
 |  |  | 14 nM | 89 nM | N#Cc1ccc(Nc2nn([C@H]3COCC[C@@H]3C#N)cc2C(N)=O)cc1 [Comp. Ex-4, reference compound] | 6 | 
 |  |  | 14 nM | 80 nM | N#C[C@H]1CCOC[C@@H]1n1cc(C(N)=O)c(Nc2ccc(OC(F)(F)F)cc2)n1 [Comp. Ex-3, reference compound] | 6 | 
0.12 nM | 3.88 nM | 32 | 15 nM | 280 nM | COc1cc(Nc2nn([C@H]3COCC[C@@H]3C#N)cc2C(N)=O)ccc1Cl [Ex-1, 3-((4-Chloro-3-methoxyphenyl)amino)-1-((3R,4S)-4-cyanotetrahydro-2H-pyran-3-yl)-1H-pyrazole-4-carboxamide] | 19 | 
0.07 nM | 3.28 nM | 49 | 19 nM | 431 nM | COc1cc(Nc2nn([C@H]3COCC[C@@H]3C#N)cc2C(N)=O)ccc1C#N [Ex-3, 3-((4-cyano-3-methoxyphenyl)amino)-1-((3R,4S)-4-cyanotetrahydro-2H-pyran-3-yl)-1H-pyrazole-4-carboxamide] | 23 | 

More lines, now with the values behind:

SMILES | IC50 [1, 8] | IC50 [2, 9] | JAK2/1 [2] | IC50 [3, 10] | IC50 [4, 11] | EPO/IL-6 [4] | other results
CSc1cc(Nc2nn([C@H]3COCC[C@@H]3C#N)cc2C(N)=O)ccc1Cl [Ex-2, 3-((4-chloro-3-(methylthio)phenyl)amino)-1-((3R,4S)-4-cyanotetrahydro-2H-pyran-3-yl)-1H-pyrazole-4-carboxamide] | 0.25 nM | 5.48 nM | 22 | 22 nM | 649 nM | 30 | 
Cc1noc2ccc(Nc3nn([C@H]4COCC[C@@H]4C#N)cc3C(N)=O)cc12 [Ex-5, 1-((3R,4S)-4-cyanotetrahydro-2H-pyran-3-yl)-3-((3-methylbenzo[d]isoxazol-5-yl)amino)-1H-pyrazole-4-carboxamide] | 0.16 nM | 3.04 nM | 19 | 17 nM | 309 nM | 18 | 
N#C[C@H]1CCOC[C@@H]1n1cc(C(N)=O)c(Nc2ccc(Cl)c(Cl)c2)n1 [Comp. Ex-2, reference compound] |  |  |  | 69 nM | 2170 nM | 31 | 
N#C[C@H]1CCOC[C@@H]1n1cc(C(N)=O)c(Nc2ccc(Cl)cc2)n1 [Comp. Ex-1, reference compound] |  |  |  |  | 132 nM | 9 | 
CN(C)[C@H]1CC[C@H](n2cc(C(N)=O)c(Nc3ccc(Cl)cc3)n2)[C@@H](C#N)C1 (single isomer, unassigned) [Reference Compound No. 1, 3-[(4-chlorophenyl)amino]-1-[(1S,2S,4S or 1R,2R,4R)-2-cyano-4-(dimethylamino)cyclohexyl]-1H-pyrazole-4-carboxamide] |  |  |  |  |  |  | IC50 [1, 12]: 1.47 nM; IC50 [5]: 1350 nM; IC50 [6]: 14 nM; IC50 [7]: 25.7 nM
CS(=O)(=O)c1ccc(Nc2nn([C@H]3CCCC[C@@H]3C#N)c3cc[nH]c(=O)c23)cc1 [Reference Compound No. 2, (1S,2S)-2-(3-{[4-(methylsulfonyl)phenyl]amino}-4-oxo-4,5-dihydro-1H-pyrazolo[4,3-c]pyridin-1-yl)cyclohexanecarbonitrile, reference compound] |  |  |  |  |  |  | IC50 [1, 12]: 0.17 nM; IC50 [2, 12]: 1 nM; IC50 [5]: 21.9 nM; IC50 [6]: 0.28 nM; IC50 ([3]; ME-180, reference compound, mean +/- spread across assay runs, read-out: IL6 CellSensor assay IC50): 21 nM; IC50 ([4]; TF-1, reference compound, mean +/- spread across assay runs, read-out: EPO CellSensor assay IC50): 39.5 nM; potency spread across the IL6, EPO and IL4 CellSensor assays ([4]; across all three CellSensor assays): two to three; IC50 [7]: 11.1 nM
CC(C)c1cc(Nc2nn([C@H]3COCC[C@@H]3C#N)cc2C(N)=O)ccc1C#N [Ex-4, 3-((4-cyano-3-isopropylphenyl)amino)-1-((3R,4S)-4-cyanotetrahydro-2H-pyran-3-yl)-1H-pyrazole-4-carboxamide] | 0.49 nM | 9.7 nM | 20 | 47 nM | 744 nM | 16 | 
